Results reported in ChEMBL document CHEMBL4477225, “Development of a cell viability assay to assess drug metabolite structure-toxicity relationships” (Bioorg Med Chem Lett, 2016).

Legend:
Assay type in all cases: ADME, cell-based
Cytochrome P450 2C9 [1] = target: T1, Cytochrome P450 2C9 (Homo sapiens, UniProt P11712); experiment: (§1) Drug activation in human Hep3B cells assessed as human CYP2C9-mediated drug metabolism-induced cytotoxicity measured as decrease in cell viability at 200.9 uM pre-incubated with BSO for 18 hrs followed by incubation with compound for 3 hrs in presence of NADPH measured after 24 hrs in absence of compound, CYP3A4 and NADPH by cell titer-glo luminescence assay relative to BSO alone; conditions: recombinant enzyme
T1 sequence (P11712 whole entry): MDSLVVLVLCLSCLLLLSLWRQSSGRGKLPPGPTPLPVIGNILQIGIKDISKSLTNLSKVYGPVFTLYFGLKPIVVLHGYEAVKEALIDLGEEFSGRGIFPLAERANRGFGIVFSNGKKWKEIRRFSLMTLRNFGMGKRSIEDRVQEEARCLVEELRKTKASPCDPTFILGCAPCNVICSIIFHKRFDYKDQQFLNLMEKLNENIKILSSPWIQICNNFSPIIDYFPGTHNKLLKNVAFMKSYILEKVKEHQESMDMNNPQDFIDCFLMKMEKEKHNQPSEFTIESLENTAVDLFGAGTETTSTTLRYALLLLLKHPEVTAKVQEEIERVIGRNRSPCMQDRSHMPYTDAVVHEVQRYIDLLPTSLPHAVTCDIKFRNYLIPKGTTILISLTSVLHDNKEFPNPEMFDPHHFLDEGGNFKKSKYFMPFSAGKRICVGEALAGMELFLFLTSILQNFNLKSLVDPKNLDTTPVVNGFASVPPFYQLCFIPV

Cytochrome P450 2D6 [2] = target: T2, Cytochrome P450 2D6 (Homo sapiens, UniProt P10635); experiment: as §1, with “CYP2D6-mediated” for “CYP2C9-mediated”, “162.8” for “200.9”; conditions: recombinant enzyme
T2 sequence (P10635 whole entry): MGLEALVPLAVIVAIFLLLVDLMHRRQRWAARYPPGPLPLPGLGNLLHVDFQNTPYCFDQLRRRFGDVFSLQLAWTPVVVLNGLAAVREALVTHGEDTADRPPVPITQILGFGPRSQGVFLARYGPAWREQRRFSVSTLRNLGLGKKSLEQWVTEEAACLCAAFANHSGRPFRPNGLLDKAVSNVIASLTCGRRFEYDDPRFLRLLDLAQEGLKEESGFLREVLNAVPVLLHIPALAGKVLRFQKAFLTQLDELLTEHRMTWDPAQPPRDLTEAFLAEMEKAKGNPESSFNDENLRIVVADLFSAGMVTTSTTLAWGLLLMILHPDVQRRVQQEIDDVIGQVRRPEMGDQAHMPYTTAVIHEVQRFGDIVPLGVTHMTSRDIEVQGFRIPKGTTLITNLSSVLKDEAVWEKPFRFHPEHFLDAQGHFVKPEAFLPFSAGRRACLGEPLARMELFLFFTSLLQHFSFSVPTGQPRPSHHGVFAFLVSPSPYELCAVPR

Cytochrome P450 3A4 [3] = target: T3, Cytochrome P450 3A4 (Homo sapiens, UniProt P08684); experiment: as §1, with “CYP3A4-mediated” for “CYP2C9-mediated”, “89.1” for “200.9”; conditions: recombinant enzyme
T3 sequence (P08684 whole entry): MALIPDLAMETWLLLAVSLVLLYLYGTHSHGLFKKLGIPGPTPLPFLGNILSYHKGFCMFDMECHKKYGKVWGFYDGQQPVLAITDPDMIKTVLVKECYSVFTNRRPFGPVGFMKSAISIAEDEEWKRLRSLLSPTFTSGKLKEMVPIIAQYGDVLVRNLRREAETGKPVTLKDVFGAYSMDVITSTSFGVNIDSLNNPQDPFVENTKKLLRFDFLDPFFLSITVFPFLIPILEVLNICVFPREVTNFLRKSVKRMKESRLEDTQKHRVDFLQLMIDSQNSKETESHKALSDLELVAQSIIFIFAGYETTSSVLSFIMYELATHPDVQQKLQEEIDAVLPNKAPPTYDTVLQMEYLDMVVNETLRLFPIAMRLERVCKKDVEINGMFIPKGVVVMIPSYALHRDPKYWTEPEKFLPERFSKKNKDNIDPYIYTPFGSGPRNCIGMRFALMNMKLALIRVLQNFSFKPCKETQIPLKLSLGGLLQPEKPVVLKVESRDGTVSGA

Cytochrome P450 3A4 [4] = target: T3, Cytochrome P450 3A4; experiment: as §1, with “CYP3A4-mediated” for “CYP2C9-mediated”, “0.3” for “200.9”; conditions: recombinant enzyme
Cytochrome P450 2D6 [5] = target: T2, Cytochrome P450 2D6; experiment: as §1, with “CYP2D6-mediated” for “CYP2C9-mediated”, “3.4” for “200.9”; conditions: recombinant enzyme
Cytochrome P450 2C9 [6] = target: T1, Cytochrome P450 2C9; experiment: as §1, with “2.8” for “200.9”; conditions: recombinant enzyme
Cytochrome P450 3A4 [7] = target: T3, Cytochrome P450 3A4; experiment: as §1, with “CYP3A4-mediated” for “CYP2C9-mediated”, “10.7” for “200.9”; conditions: recombinant enzyme
Cytochrome P450 2D6 [8] = target: T2, Cytochrome P450 2D6; experiment: as §1, with “CYP2D6-mediated” for “CYP2C9-mediated”, “131.3” for “200.9”; conditions: recombinant enzyme
Cytochrome P450 2C9 [9] = target: T1, Cytochrome P450 2C9; experiment: as §1, with “77.6” for “200.9”; conditions: recombinant enzyme
Cytochrome P450 2D6 [10] = target: T2, Cytochrome P450 2D6; experiment: as §1, with “CYP2D6-mediated” for “CYP2C9-mediated”, “15.2” for “200.9”; conditions: recombinant enzyme
Cytochrome P450 3A4 [11] = target: T3, Cytochrome P450 3A4; experiment: as §1, with “CYP3A4-mediated” for “CYP2C9-mediated”, “8.5” for “200.9”; conditions: recombinant enzyme
Cytochrome P450 2C9 [12] = target: T1, Cytochrome P450 2C9; experiment: as §1, with “40.5” for “200.9”; conditions: recombinant enzyme
Cytochrome P450 3A4 [13] = target: T3, Cytochrome P450 3A4; experiment: as §1, with “CYP3A4-mediated” for “CYP2C9-mediated”, “14.9” for “200.9”; conditions: recombinant enzyme
Cytochrome P450 2C9 [14] = target: T1, Cytochrome P450 2C9; experiment: as §1, with “78.1” for “200.9”; conditions: recombinant enzyme
Cytochrome P450 2D6 [15] = target: T2, Cytochrome P450 2D6; experiment: as §1, with “CYP2D6-mediated” for “CYP2C9-mediated”, “20.8” for “200.9”; conditions: recombinant enzyme
Cytochrome P450 3A4 [16] = target: T3, Cytochrome P450 3A4; experiment: as §1, with “CYP3A4-mediated” for “CYP2C9-mediated”, “9.6” for “200.9”; conditions: recombinant enzyme
Cytochrome P450 2D6 [17] = target: T2, Cytochrome P450 2D6; experiment: as §1, with “CYP2D6-mediated” for “CYP2C9-mediated”, “8.6” for “200.9”; conditions: recombinant enzyme
Cytochrome P450 2C9 [18] = target: T1, Cytochrome P450 2C9; experiment: as §1, with “14” for “200.9”; conditions: recombinant enzyme
Cytochrome P450 2C9 [19] = target: T1, Cytochrome P450 2C9; experiment: as §1, with “7.6” for “200.9”; conditions: recombinant enzyme
Cytochrome P450 2D6 [20] = target: T2, Cytochrome P450 2D6; experiment: as §1, with “CYP2D6-mediated” for “CYP2C9-mediated”, “12.8” for “200.9”; conditions: recombinant enzyme
Cytochrome P450 2C9 [21] = target: T1, Cytochrome P450 2C9; experiment: as §1, with “200.9” left out; conditions: recombinant enzyme, 14.6 µM
Cytochrome P450 3A4 [22] = target: T3, Cytochrome P450 3A4; experiment: as §1, with “CYP3A4-mediated” for “CYP2C9-mediated”, “6.5” for “200.9”; conditions: recombinant enzyme
Cytochrome P450 2D6 [23] = target: T2, Cytochrome P450 2D6; experiment: as §1, with “CYP2D6-mediated” for “CYP2C9-mediated”, “4.8” for “200.9”; conditions: recombinant enzyme
Cytochrome P450 3A4 [24] = target: T3, Cytochrome P450 3A4; experiment: as §1, with “CYP3A4-mediated” for “CYP2C9-mediated”, “37.6” for “200.9”; conditions: recombinant enzyme
Cytochrome P450 2C9 [25] = target: T1, Cytochrome P450 2C9; experiment: as §1, with “59.9” for “200.9”; conditions: recombinant enzyme
Cytochrome P450 2D6 [26] = target: T2, Cytochrome P450 2D6; experiment: as §1, with “CYP2D6-mediated” for “CYP2C9-mediated”, “66.8” for “200.9”; conditions: recombinant enzyme
Cytochrome P450 3A4 [27] = target: T3, Cytochrome P450 3A4; experiment: as §1, with “CYP3A4-mediated” for “CYP2C9-mediated”, “80.2” for “200.9”; conditions: recombinant enzyme
Cytochrome P450 2D6 [28] = target: T2, Cytochrome P450 2D6; experiment: as §1, with “CYP2D6-mediated” for “CYP2C9-mediated”, “129.2” for “200.9”; conditions: recombinant enzyme
Cytochrome P450 2C9 [29] = target: T1, Cytochrome P450 2C9; experiment: as §1, with “210.8” for “200.9”; conditions: recombinant enzyme
Cytochrome P450 3A4 [30] = target: T3, Cytochrome P450 3A4; experiment: as §1, with “CYP3A4-mediated” for “CYP2C9-mediated”, “2.2” for “200.9”; conditions: recombinant enzyme
Cytochrome P450 2C9 [31] = target: T1, Cytochrome P450 2C9; experiment: as §1, with “25.3” for “200.9”; conditions: recombinant enzyme
Cytochrome P450 2D6 [32] = target: T2, Cytochrome P450 2D6; experiment: as §1, with “CYP2D6-mediated” for “CYP2C9-mediated”, “3” for “200.9”; conditions: recombinant enzyme
Cytochrome P450 3A4 [33] = target: T3, Cytochrome P450 3A4; experiment: as §1, with “CYP3A4-mediated” for “CYP2C9-mediated”, “89.6” for “200.9”; conditions: recombinant enzyme
Cytochrome P450 2D6 [34] = target: T2, Cytochrome P450 2D6; experiment: as §1, with “CYP2D6-mediated” for “CYP2C9-mediated”, “130.3” for “200.9”; conditions: recombinant enzyme
Cytochrome P450 2C9 [35] = target: T1, Cytochrome P450 2C9; experiment: as §1, with “118.7” for “200.9”; conditions: recombinant enzyme
Cytochrome P450 2C9 [36] = target: T1, Cytochrome P450 2C9; experiment: as §1, with “28.5” for “200.9”; conditions: recombinant enzyme
Cytochrome P450 2D6 [37] = target: T2, Cytochrome P450 2D6; experiment: as §1, with “CYP2D6-mediated” for “CYP2C9-mediated”, “6.8” for “200.9”; conditions: recombinant enzyme
Cytochrome P450 3A4 [38] = target: T3, Cytochrome P450 3A4; experiment: as §1, with “CYP3A4-mediated” for “CYP2C9-mediated”, “25.2” for “200.9”; conditions: recombinant enzyme
Cytochrome P450 2D6 [39] = target: T2, Cytochrome P450 2D6; experiment: as §1, with “CYP2D6-mediated” for “CYP2C9-mediated”, “33.9” for “200.9”; conditions: recombinant enzyme
Cytochrome P450 2C9 [40] = target: T1, Cytochrome P450 2C9; experiment: as §1, with “34.1” for “200.9”; conditions: recombinant enzyme

For `CN1[C@@H]2CC[C@H]1C[C@@H](OC(c1ccccc1)c1ccccc1)C2` [BENZTROPINE], the “fold change (FC)” value (Cytochrome P450 2C9 [1]) was 0.5, the “fold change (FC)” value (Cytochrome P450 2D6 [2]) was 0.7 and the “fold change (FC)” value (Cytochrome P450 3A4 [3]) was 1.2.
For `CC(CCc1ccc(O)cc1)NCCc1ccc(O)c(O)c1` (configuration not stated) [DOBUTAMINE], the “fold change (FC)” value (Cytochrome P450 3A4 [4]) was 1023.9, the “fold change (FC)” value (Cytochrome P450 2D6 [5]) was 89.2 and the “fold change (FC)” value (Cytochrome P450 2C9 [6]) was 108.1.
`CCN(CC)CC#CCOC(=O)C(O)(c1ccccc1)C1CCCCC1` (configuration not stated) [OXYBUTYNIN] was tested, and the “fold change (FC)” value (Cytochrome P450 3A4 [7]) was 4.3, the “fold change (FC)” value (Cytochrome P450 2D6 [8]) was 0.4 and the “fold change (FC)” value (Cytochrome P450 2C9 [9]) was 0.6.
For `Cc1c(C)c2c(c(C)c1O)CCC(C)(COc1ccc(CC3SC(=O)NC3=O)cc1)O2` (configuration not stated) [TROGLITAZONE], the “fold change (FC)” value (Cytochrome P450 2D6 [10]) was 3.1, the “fold change (FC)” value (Cytochrome P450 3A4 [11]) was 5.5 and the “fold change (FC)” value (Cytochrome P450 2C9 [12]) was 1.2.
`CC[C@@H](CO)NC(=O)[C@@H]1C=C2c3cccc4c3c(cn4C)C[C@H]2N(C)C1` [METHYSERGIDE] was tested, and the “fold change (FC)” value (Cytochrome P450 3A4 [13]) was 2.9, the “fold change (FC)” value (Cytochrome P450 2C9 [14]) was 0.6 and the “fold change (FC)” value (Cytochrome P450 2D6 [15]) was 2.1.
For `CC(COc1ccccc1)N(CCCl)Cc1ccccc1` (configuration not stated) [PHENOXYBENZAMINE], the “fold change (FC)” value (Cytochrome P450 3A4 [16]) was 1.3, the “fold change (FC)” value (Cytochrome P450 2D6 [17]) was 1.5 and the “fold change (FC)” value (Cytochrome P450 2C9 [18]) was 0.9.
With `CCC[C@@]1(CCc2ccccc2)CC(O)=C([C@H](CC)c2cccc(NS(=O)(=O)c3ccc(C(F)(F)F)cn3)c2)C(=O)O1` the “fold change (FC)” value (Cytochrome P450 2C9 [19]) was 1.6, the “fold change (FC)” value (Cytochrome P450 3A4 [16]) was 1.3 and the “fold change (FC)” value (Cytochrome P450 2D6 [20]) was 1.
In the case of `COc1cc(NC(C)CCCN)c2ncccc2c1` (configuration not stated) [PRIMAQUINE], the FC (Cytochrome P450 2C9 [21]) is reported as 5.5, the “fold change (FC)” value (Cytochrome P450 3A4 [22]) is reported as 12.3 and the “fold change (FC)” value (Cytochrome P450 2D6 [23]) is reported as 16.7.
For `CC(C)(C)NC[C@H](O)COc1ccccc1C1CCCC1` [PENBUTOLOL], the “fold change (FC)” value (Cytochrome P450 3A4 [24]) was 1.5, the “fold change (FC)” value (Cytochrome P450 2C9 [25]) was 0.9 and the “fold change (FC)” value (Cytochrome P450 2D6 [26]) was 0.8.
`CN(C)C/C=C(/c1ccc(Br)cc1)c1cccnc1` [ZIMELDINE] was tested, and the “fold change (FC)” value (Cytochrome P450 3A4 [27]) was 2.8, the “fold change (FC)” value (Cytochrome P450 2D6 [28]) was 1.8 and the “fold change (FC)” value (Cytochrome P450 2C9 [29]) was 1.1.
With `CC(C)NCC(O)c1ccc(O)c(O)c1` (configuration not stated) [ISOPROTERENOL] the “fold change (FC)” value (Cytochrome P450 3A4 [30]) was 135.8, the “fold change (FC)” value (Cytochrome P450 2C9 [31]) was 11.8 and the “fold change (FC)” value (Cytochrome P450 2D6 [32]) was 100.1.
In the case of `CN1CC(C(=O)N[C@]2(C)O[C@@]3(O)[C@@H]4CCCN4C(=O)[C@H](Cc4ccccc4)N3C2=O)C[C@@H]2c3cccc4[nH]cc(c34)C[C@H]21` (some centres not stated), the “fold change (FC)” value (Cytochrome P450 3A4 [33]) is reported as 0.7, the “fold change (FC)” value (Cytochrome P450 2D6 [34]) is reported as 0.5 and the “fold change (FC)” value (Cytochrome P450 2C9 [35]) is reported as 0.5.
With `CC1=C(CC(=O)O)c2cc(F)ccc2/C1=C\c1ccc([S+](C)[O-])cc1` (configuration not stated) the “fold change (FC)” value (Cytochrome P450 2C9 [36]) was 1.6, the “fold change (FC)” value (Cytochrome P450 2D6 [37]) was 6.7 and the “fold change (FC)” value (Cytochrome P450 3A4 [22]) was 6.9.
With `COc1cc(C(=O)NS(=O)(=O)c2ccccc2C)ccc1Cc1cn(C)c2ccc(NC(=O)OC3CCCC3)cc12` [ZAFIRLUKAST] the “fold change (FC)” value (Cytochrome P450 3A4 [38]) was 1.9, the “fold change (FC)” value (Cytochrome P450 2D6 [39]) was 1.4 and the “fold change (FC)” value (Cytochrome P450 2C9 [40]) was 1.4.
